This is an account of results in publication PMC11428593 (Antibiotics, 2024).

What all share (format): cell-based, Staphylococcus aureus
The subject of test [1] is MRSA USA300LAC. The test can be described thus: Minimal bactericidal concentration (MBC). To be noted: for MBC: Staphylococcus aureus, MRSA USA300LAC, concentration at which no CFUs were observed; for bactericidal or bacteriostatic effect: USA300LAC, in words. How it is done:
In brief, 10 µL of each culture was serially diluted and plated onto prewarmed LB agar and incubated overnight at 37 °C under static conditions to observe the colony-forming units (CFUs). The concentration at which no CFUs were observed was recorded as the MBC.

In test [2] the test system is MRSA USA300LAC. The test can be described thus: MIC by broth microdilution (CLSI). To be noted: Staphylococcus aureus; MRSA USA300LAC; MHB, 37 °C, 16 h; read-out: MIC. On the procedure: The MIC values of the alkyl pyridinol derivatives against the S. aureus strain ATCC 25923, MRSA strains ATCC 33591, ATCC BAA-44, and USA300LAC, as well as the P. aeruginosa strain ATCC 27853, were determined by following the CLSI guidelines for the broth microdilution antibiotic sensitivity testing protocol. In brief, the overnight cultures were diluted into Mueller Hinton Broth (MHB) to a final inoculum concentration of 5 × 10^5 CFU/mL (O.D600nm = 0.00001) and dispensed into a 96-well polystyrene plate (Alkali Scientific, Fort Lauderdale, FL, USA). Alkyl pyridine compounds were diluted into inoculated MHB to the indicated concentrations from stock solutions that would allow for DMSO concentrations below 5%, resulting in a total volume of 200 μL per well. The plates were subsequently incubated at 37 °C for 16 h at 300 rpm. The MIC values, which are defined as the lowest compound concentration that inhibited growth, were determined from three biological replicates.

Test [3] relates to S. aureus strain USA300LAC established biofilm. Briefly: Biofilm eradication assay (crystal violet). To be noted: at or below 4× MIC, 24 h, in words. On the procedure:
(§1) The establishment of a bacterial biofilm usually begins with pathogen attachment to biotic and abiotic surfaces, and S. aureus is notorious for its ability to form biofilms on surfaces, such as implants and catheters, which presents a unique treatment challenge.
(§2) Overnight cultures of S. aureus strain USA300LAC were diluted into fresh TSB to an OD600nm = 0.001 and incubated aerobically at 37 °C until the mid-log phase. (A) To detect effects on biofilm formation, cultures were diluted to an OD600nm = 0.0001 in the presence and absence of JC-01-074 and vancomycin at concentrations of 0.5–4× MIC, respectively. (B) To detect effects on biofilm eradication, cultures were diluted to an OD600nm = 0.0001 and incubated under static conditions for 24 h, after which planktonic cells were removed, and the preformed biofilms were washed twice with PBS. […] Biofilm mass was quantified after 20 h via crystal violet staining. One-way ANOVA, Dunnett’s multiple-comparison test (* p < 0.05, ** p < 0.01); (n = 3, ±S.D.).
The overnight USA300LAC cultures were diluted 1000-fold into the TSB media and incubated under shaking conditions at 37 °C until the mid-log phase. […] After 24 h of incubation, biofilm eradication was assessed via CV staining at 595 nm in a Tecan 200 Infinite Pro microplate reader (Tecan, Morgan Hill, CA, USA).

In test [4] the test system is S. aureus strain USA300LAC biofilm. Briefly: Inhibition of biofilm formation (crystal violet). How it is done:
as §1, §2
The overnight USA300LAC cultures were diluted 1000-fold into the fresh TSB media and incubated under shaking conditions at 37 °C until the mid-log phase. The cultures were subsequently diluted to approximately 4 × 10^6 CFU/mL and dispended into 96-well polystyrene plates (Alkali Scientific, Fort Lauderdale, FL, USA) containing DMSO (control), vancomycin (0.5–4× MIC), or the indicated alkyl pyridinol compounds (0.5–4× MIC) and sealed with a breath-easy membrane (Fisherbrand, Waltham, MA, USA). The peripheral wells were filled with PBS to limit evaporation. The plates were incubated without agitation at 37 °C for 24 h, following which the planktonic cells were removed. The biofilms were washed twice with PBS, stained with 0.1% crystal violet (CV) for 15 min, and washed again twice with PBS to remove the unbound CV dye. CV bound to biofilm cells was extracted with 30% (v/v) glacial acetic acid, and the O.D.595nm was determined.

Test [5] relates to S. aureus strain USA300LAC. Briefly: Growth curve-based assay of exponentially growing cells. How it is done:
Considering the divergent antimicrobial effects of our new compounds, we proceeded to assess the impact of JC-01-072 and JC-01-074 on the growth of exponentially growing USA300LAC cells. We performed growth-curve-based assays of the USA300LAC cultures that were either left untreated or treated with 4–16 μg/mL of the alkyl pyridinol compound once they reached the mid-log phase (OD600nm~0.2–0.3).
Figure 2 Impact of alkyl pyridinol exposure on exponentially growing S. aureus. An overnight culture of the S. aureus strain USA300LAC was diluted into fresh TSB and grown to mid-exponential phase (OD600nm = 0.2–0.3) prior to treatment with 4–16 µg/mL JC-01-072 (A) and JC-01-074 (B). Optical densities were measured at 600 nm at 10 min intervals for 16–18 h (n = 3, ±S.D.).
The overnight USA300LAC cultures were diluted into fresh TSB media to an O.D.600nm = 0.001 and incubated at 37 °C under shaking conditions (300 rpm) until an O.D.600nm of 0.2–0.3 (early log phase) was reached. The cultures were subsequently transferred to a 96-well polystyrene plate (Alkali Scientific, Fort Lauderdale, FL, USA), following which DMSO (control) or alkyl pyridine compounds were added at the indicated final concentrations. The cells were then incubated at 37 °C for 16 h at 300 rpm, and the O.D.600nm measurements were taken every 10 min for 16 h in a Tecan Infinite 200 plate reader (Tecan, Morgan Hill, CA, USA).

Converted amounts (≈) assume the structure as drawn. “Also recorded” adds a separate entry of the source.

Turning to `CCCCCCCCCC#Cc1cccc(O)n1` [JC-01-074], in the test with MRSA USA300LAC [1], the minimal bactericidal concentration (MBC) stood at 16 µg/mL (≈ 65.2 µM) and the “bactericidal or bacteriostatic effect” value was “bactericidal”. Moreover, the MIC in the test with MRSA USA300LAC [2] was determined as 16 µg/mL (≈ 65.2 µM). Also, the “eradication of established biofilms” value in test [3] was “has no effect once biofilms have been established; also recorded: no significant effects on the already established biofilms”. In test [4] (0.5–4× MIC, dose-dependent), the “reduction of biofilm formation” value is recorded as 60–70%. Also, the “inhibition of biofilm formation” value in test [4] (up to 4× MIC, in words) is reported as “very potent in inhibiting their formation”. The delay of growth in test [5] (0.5× MIC, mid-log USA300LAC) was in the range of 6 to 8 h. Also, in test [5] (1× MIC, mid-log USA300LAC), the “effect on growth at 1× MIC” value is reported as “total growth arrest”.

As for `CCCCCCCCCC#Cc1cncc(O)c1` [JC-01-072], in the test with MRSA USA300LAC [1], the MBC is over 128 µg/mL and the “bactericidal or bacteriostatic effect” value is listed as “bacteriostatic; also recorded: no significant killing”. In the test on MRSA USA300LAC [2], the MIC was 8 µg/mL (≈ 32.6 µM). Moreover, the “effect on growth of mid-log USA300LAC cells” value in test [5] (4–16 μg/mL, added at OD600nm ~0.2–0.3) is reported as “little to no effects”.

As a reminder, the MBC is the smallest concentration meeting the test's criterion for killing. Low values mean greater bactericidal potency, high ones weaker bactericidal potency. By MIC is commonly meant the lowest concentration found to suppress growth.
